Assay results taken from ChEMBL document CHEMBL1201862, “PubChem BioAssay data set” (2004).
Calls of active or inactive are those of the source.

How the values were obtained:
[1] = cells; type: functional, cell-based
[2] = cells; type: functional, cell-based; remark: listed apart in the source
[3] = biological target: Paired box protein Pax-8 (Homo sapiens, UniProt Q06710); assay: inhibitors of PAX8-driven TPO luciferase reporter, dose response, RMG-I cells, cherry-pick (AID 687027); type: functional, cell-based;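 also: luciferase reporter driven by Pax8 target thyroperoxidase promoter measured by SteadyGlo luminescence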
Paired box protein Pax-8, sequence (Q06710 whole entry, the tested form may be a part): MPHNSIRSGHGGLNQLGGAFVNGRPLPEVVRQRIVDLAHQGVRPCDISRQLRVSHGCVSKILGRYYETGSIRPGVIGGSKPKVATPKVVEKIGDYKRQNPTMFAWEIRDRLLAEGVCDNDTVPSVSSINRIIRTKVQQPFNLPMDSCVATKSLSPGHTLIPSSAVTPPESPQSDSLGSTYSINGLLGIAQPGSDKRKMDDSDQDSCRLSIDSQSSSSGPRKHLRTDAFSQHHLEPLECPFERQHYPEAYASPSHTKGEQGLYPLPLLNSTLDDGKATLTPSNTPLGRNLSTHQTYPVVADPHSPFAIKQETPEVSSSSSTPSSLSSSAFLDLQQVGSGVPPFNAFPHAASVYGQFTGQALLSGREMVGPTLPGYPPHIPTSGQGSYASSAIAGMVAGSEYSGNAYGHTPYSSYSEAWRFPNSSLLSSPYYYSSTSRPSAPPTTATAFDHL

[4] = inhibitors of HIV Env-driven cell fusion, dose response, cherry-pick (AID 652057); type: functional, cell-based
[5] = ZM109 Env clade C HIV-1 fusion inhibitors, dose response, HeLa effector, CEM target cells, luciferase, cherry-pick (AID 652058); type: functional, cell-based
[6] = test system: H9c2; assay: cells; type: functional, cell-based; details: Rattus norvegicus, H9c2, Myocardium;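 also: confirmatory concentration-response retest of ultra-high-throughput screening hits for modulation of myocardial damage; cell death induced by hydrogen peroxide oxidative stress; compound pretreatment for 60 min then peroxide exposure for 2 h; potency is for protecting the cells against peroxide damage rather than for killing them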
[7] = Shn3 3'UTR reporter inhibitors, dose response, cell-based, Clone20 osteoblasts, firefly luciferase, cherry-picked (AID 624132); type: functional;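 also: firefly luciferase luminescence from reporter carrying the Shn3 3'UTR in osteoblasts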
[8] = HepG2 cell cytotoxicity, dose response, cytotoxicity control for Shn3 inhibitor project, CellTiter-Glo, cherry-picked (AID 624134); type: functional, cell-based
[9] = control 3'UTR Renilla luciferase suppression, dose response, counter-screen for Shn3 inhibitor project, cell-based, Clone20-Shn3RL, cherry-picked (AID 624133); type: functional
[10] = biological target: T1, Short transient receptor potential channel 4 (Mus musculus, UniProt Q9QUQ5); assay: mouse TRPC4 channel activators, dose response, cell-based, HEK293 TRPC4/mu-opioid, Fluo-4 calcium (AID 434937); type: functional
T1 sequence (Q9QUQ5 whole entry): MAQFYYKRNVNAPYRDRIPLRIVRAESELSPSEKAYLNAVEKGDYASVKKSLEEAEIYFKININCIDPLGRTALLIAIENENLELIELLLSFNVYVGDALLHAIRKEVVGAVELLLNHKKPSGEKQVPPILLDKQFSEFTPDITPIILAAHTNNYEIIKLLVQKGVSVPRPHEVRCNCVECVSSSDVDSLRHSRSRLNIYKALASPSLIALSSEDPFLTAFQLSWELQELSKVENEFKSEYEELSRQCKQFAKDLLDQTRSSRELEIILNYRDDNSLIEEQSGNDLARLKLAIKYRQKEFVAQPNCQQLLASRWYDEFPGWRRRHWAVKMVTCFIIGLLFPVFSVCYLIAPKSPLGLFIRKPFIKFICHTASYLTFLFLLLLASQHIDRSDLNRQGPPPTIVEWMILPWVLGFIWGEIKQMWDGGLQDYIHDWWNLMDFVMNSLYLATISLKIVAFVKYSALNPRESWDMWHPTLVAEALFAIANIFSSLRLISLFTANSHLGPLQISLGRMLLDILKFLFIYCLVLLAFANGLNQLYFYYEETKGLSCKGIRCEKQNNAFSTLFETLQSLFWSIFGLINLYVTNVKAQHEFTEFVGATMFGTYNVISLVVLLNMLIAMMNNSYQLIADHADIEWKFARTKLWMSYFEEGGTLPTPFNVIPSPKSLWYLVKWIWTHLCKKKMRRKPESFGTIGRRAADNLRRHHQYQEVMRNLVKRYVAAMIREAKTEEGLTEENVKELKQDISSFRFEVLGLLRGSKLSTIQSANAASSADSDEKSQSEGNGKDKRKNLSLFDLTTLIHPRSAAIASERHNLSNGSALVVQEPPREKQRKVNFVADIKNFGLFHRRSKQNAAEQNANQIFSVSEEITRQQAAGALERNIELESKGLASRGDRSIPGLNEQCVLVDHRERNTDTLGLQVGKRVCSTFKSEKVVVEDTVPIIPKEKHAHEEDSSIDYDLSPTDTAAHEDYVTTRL

[11] = HEp-2 cell cytotoxicity, dose response, cytotoxicity control for RSV inhibitor project, HTS (AID 2410); type: functional; details: human respiratory syncytial virus
[12] = growth suppression of PTEN-null colon cells, dose response, cell-based, HCT116 PTEN knockout (AID 1047); type: functional;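 also: HCT116 colon tumor cells with PTEN knocked out; cells exposed to compound for 60 hours before readout; potency for loss of cell viability measured by luminescence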
[13] = growth suppression of beta-catenin-knockout colon cells, dose response, cell-based, HCT116, human colon tumor (AID 1045); type: functional;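 also: HCT116 colon tumor cells with beta catenin knocked out; cells exposed to compound for 60 hours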
[14] = Luminescence Cell-Based Dose Retest to Confirm Inhibitors of Cancer Stem Cells. [Related pubchem assays (depositor defined):AID2717, AID2721]; type: functional; details: Homo sapiens
[15] = inhibitors of intracellular T. cruzi replication, confirmation, NIH3T3 host cells, beta-gal luminescence (AID 2044); type: functional, cell-based;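 also: intracellular parasites grown in NIH/3T3 mouse fibroblasts as host cells; luminescent beta-galactosidase reporter signal from transgenic T. cruzi replicating inside host cells; inhibitors lower the luminescence signal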
[16] = cytotoxicity toward NIH3T3 fibroblasts, dose response, counter-screen, cell-based, ATP luminescence, mouse fibroblasts (AID 2010); type: functional;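 also: cells exposed to compound for about 90 hours before reading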

For `CCOC(=O)C1CCCN(C(=O)c2ccc3nc(-c4ccccc4)c(-c4ccccc4)nc3c2)C1` (centres undefined), the EC50 [1] was > 350 µM (not active) and the EC50 [2] was > 350 µM (not active).

For `O=[N+]([O-])c1cc2c(ccc3occc32)o1`, the AC50 [3] was 2.49 µM (active).

For `C[C@H](CO)N1C[C@H](C)[C@H](CN(C)S(=O)(=O)c2ccccc2)Oc2ccc(NS(=O)(=O)c3ccc(F)cc3)cc2CC1=O`, the AC50 [4] was 15.1 µM (active) and the AC50 [5] was 28.8 µM (active).

In the case of `O=c1cc(CN2CCN(S(=O)(=O)c3cccc(Cl)c3)CC2)c2ccc(O)cc2o1`, the IC50 [6] is reported as > 79 µM (inactive).

For `CC1(C)CC2CC(C)(CN2c2ncnc3ccc(Br)cc23)C1` (centres undefined), the AC50 [7] was 2.11 µM (active), the AC50 [8] was 37.2 µM (active) and the AC50 [9] was 0.972 µM (active).

In the case of `Cn1c(N2CCN(C(=O)Nc3ccc(C(F)(F)F)cc3)CC2)nc2ccccc21`, the EC50 [10] is reported as 3.35 µM (active).

For `Cc1csc(SCc2nc(O)c3c4c(sc3n2)CCC4)n1`, the IC50 [6] was 17.1 µM (active).

With `COC(=O)c1ccccc1N=Nc1c(O)n[nH]c1N` the CC50 [11] was > 50 µM (active) and the EC50 [10] was 2.99 µM (active).

With `COCCCn1c(C)nc2c(c1=O)c1nc3ccccc3nc1n2CCc1ccccc1` the IC50 [6] was 11.7 µM (active).

In the case of `O=C(CCCCn1c(=O)[nH]c2ccccc2c1=O)NC1CCN(Cc2ccccc2)CC1`, the EC50 [10] is reported as 0.376 µM (active).

With `CC(C)OCCCNC(=O)c1c(N)n(Cc2cccs2)c2nc3ccccc3nc12` the EC50 [12] was 84.7 µM (active), the EC50 [13] was 216 µM (active) and the AC50 [14] was 3.51 µM (active).

With `Cc1cc(C)cc(-n2c(N)c(C(=O)Nc3c(C)n(C)n(-c4ccccc4)c3=O)c3nc4ccccc4nc32)c1` the EC50 [15] was 1.21 µM (active), the EC50 [12] was 11.8 µM (active) and the EC50 [16] was > 60 µM (not active). For the same molecule, the EC50 [13] was 13 µM (active).

With `O=C(CNC(=O)c1nc[nH]c1C(=O)NCC(=O)OCc1ccccc1)OCc1ccccc1` the IC50 [6] was 41 µM (inactive).

In the case of `Cc1c(NC(=O)CSc2cccc3cccnc23)c(=O)n(-c2ccccc2)n1C`, the EC50 [15] is reported as 1.31 µM (active), the EC50 [12] is reported as 17.4 µM (active) and the EC50 [16] is reported as > 30 µM (not active). The EC50 [13] was 17 µM (active).

With `Cc1ccc(S(=O)(=O)c2nc(-c3ccccc3Cl)oc2N(C)C)cc1` the EC50 [1] was > 350 µM (not active) and the EC50 [2] was > 350 µM (not active).

With `COc1ccc(NC(=O)CCC(=O)N(Cc2ccc(OC)c(OC)c2)c2nccs2)cc1` the EC50 [1] was > 350 µM (not active) and the EC50 [2] was > 350 µM (not active).

In the case of `CCOC(=O)c1cn(CC(=O)Nc2cccc(Cl)c2C)nn1`, the AC50 [7] is reported as 4.65 µM (active) and the AC50 [8] is reported as > 70 µM (inactive).

In the case of `COc1c2c(cc3c1C(CC(O)Cc1ccccc1)N(C)CC3)OCO2` (centres undefined), the EC50 [10] is reported as 2.99 µM (active).
